In patent US7662820B2, “Dipterinyl calcium pentahydrate (DCP) and therapeutic methods based thereon” (SanRX Pharmaceuticals, Inc., priority 2006, dated 2010):

Experiments:
[1] = nude mice treated with DCP, FIG. 3
Description: Twenty-nine athymic nude were each injected subcutaneously with 10×10^6 MDA-MB-231 cancer cells into the right flank. When tumors reached 3-5 mm in size, the mice were divided into five treatment groups of five each and a control group of four mice. Four of these with outlying tumor sizes or non-tumor takes were excluded shortly after treatment began: one each from the (1:4 mol:mol) calcium pterin group, the (1:2 mol:mol) calcium pterin group, the DCP (69 mg/kg/day) group, and one from the control group. Experimental groups were treated by oral gavage once daily with the indicated test suspensions or solutions. Control groups were untreated. Daily dosing was for 7 days per week. Animals were restrained but not anesthetized for oral dosing. Tumors were measured twice weekly with calipers and body weights taken twice weekly on the day of tumor measurements. Blood was collected from all animals via cardiac puncture at termination (after 70 to 98 days of treatment) and processed to EDTA plasma for analysis.

[2] = test system: MDA-MB-231 human tumor xenographs; test: Antitumor efficacy in nude mice with MDA-MB-231 human tumor xenographs; type: in vivo, athymic nude (nu/nu) mice; conditions: for anti tumor efficacy compared with original CaPterin, (1:4 mol:mol) calcium pterin / inhibition of MDA-MB-231 xenograph growth (Relative Tumor Volume): oral gavage once daily, FIG. 1; for inhibition of MDA-MB-231 xenograph growth (Relative Tumor Volume): nude mice, versus untreated control
Description: FIGS. 1A and 1B (with SEMs): Twenty-nine athymic nude (nu/nu) female mice, ages 3-4 weeks, were inoculated with 10×10^6 MDA-MB-231 cancer cells subcutaneously into the right flank of each mouse. […] Four mice were assigned as controls. Four mice with outlying tumor sizes or non-tumor takes were subsequently excluded. […] The control group was untreated.
Cell Line Propagation and Inoculation: The MDA-MB-231 human breast tumor cell lines were supplied by SRI International (Menlo Park, Calif.) and propagated using standard in vitro cell expansion methods. Briefly, cells were grown in L-15 media from Gibco (Cat. No. 11415-064) supplemented with 2 mM L-Glutamine and 10% Fetal Bovine Serum (FBS). The cells were cultured in an incubator with 5% C02, 37.50C, and 80% humidity. Cells were harvested with 0.25% (w/v) Trypsin-0.03% (w/v) EDTA solution. Cells were prepared for injection by standard methods to appropriate concentrations. Animals were temporarily restrained but not anesthetized for the inoculation of the tumor cells. Animals were subcutaneously injected with the tumor cells in a 100-200 μl volume.
Control groups were untreated. Daily dosing was for 7 days per week. Animals were restrained but not anesthetized for oral dosing.
Tumor Growth Rate Measurements: Each animal was individually tracked for tumor growth by external caliper measurements of protruding tumor. Primary tumor sizes were measured using calipers and an approximate tumor volume calculated using the formula 1/2 (a×b2), where b was the smaller of two perpendicular diameters.
For each group, the mean and standard error of the mean (SEM) of the ratio V/Vo, Relative Tumor Volume (RTV), were plotted as a function of treatment time after inoculation. V0 was the tumor volume at Day 0, when treatment began. Time course statistical analyses based upon repeated measures ANOVA models were used (StatView SE+Graphics, v 1.03).

[3] = test system: tumor; conditions: in vivo; cited from earlier work
[4] = test system: sarcoma; conditions: mice; cited from earlier work

## Nc1nc([O-])c2nccnc2n1.Nc1nc([O-])c2nccnc2n1.[Ca+2] [DCP, dipterinyl calcium pentahydrate]
[1]
  weight loss: no significant weight loss
[2]; DCP at 23 mg/kg/day
  anti tumor efficacy compared with original CaPterin, (1:4 mol:mol) calcium pterin: significantly greater anti tumor efficacy
[2]; DCP at 69 mg/kg/day
  anti tumor efficacy compared with original CaPterin, (1:4 mol:mol) calcium pterin: comparable efficacy
[2]
  inhibition of MDA-MB-231 xenograph growth (Relative Tumor Volume): significantly inhibit
[2]; oral, dose not stated (conclusion)
  inhibition of MDA-MB-231 xenograph tumors compared with (1:4 mol:mol) calcium pterin [CaPterin]: significantly greater

## Nc1nc2[nH]c(=O)cnc2c(=O)[nH]1 [Isoxanthopterin]
[3]
  tumor growth: inhibit tumor growth

## Nc1nc(=O)c2[nH]c(=O)cnc2[nH]1 [Xanthopterin]
[4]
  sarcoma growth: inhibit sarcoma growth

## O.O.[Ca+2].[Cl-].[Cl-] [calcium chloride dihydrate, reference compound]
[2]
  inhibition of MDA-MB-231 xenograph growth (Relative Tumor Volume): significantly inhibit
